Source: PubChem BioAssay (NCI)
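A five-concentration, 48-hour dose response in 96-well plates underlies each endpoint, interpolated linearly between surrounding concentrations. TGI is the concentration that stops growth completely.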

How the values were obtained:
Experiment in all cases: NCI-60 cell line screen, 48 h
[1] = system: 786-0 renal
[2] = system: A498 renal
[3] = system: A549 NSCLC
[4] = system: ACHN renal
[5] = system: BT-549 breast
[6] = system: CAKI-1 renal
[7] = system: CCRF-CEM leukemia
[8] = system: COLO 205 colon
[9] = system: DU-145 prostate
[10] = system: EKVX NSCLC
[11] = system: HCC-2998 colon
[12] = system: HCT-116 colon
[13] = system: HCT-15 colon
[14] = system: HL-60(TB) leukemia
[15] = system: HOP-62 NSCLC
[16] = system: HOP-92 NSCLC
[17] = system: HS 578T breast
[18] = system: HT29 colon
[19] = system: IGROV1 ovarian
[20] = system: K-562 leukemia
[21] = system: KM12 colon
[22] = system: LOX IMVI melanoma
[23] = system: M14 melanoma
[24] = system: MALME-3M melanoma
[25] = system: MCF7 breast
[26] = system: MDA-MB-231 breast
[27] = system: MDA-MB-435
[28] = system: MDA-N
[29] = system: MOLT-4 leukemia
[30] = system: NCI-H226 lung
[31] = system: NCI-H23 lung
[32] = system: NCI-H460 lung
[33] = system: NCI-H522 lung
[34] = system: NCI/ADR-RES ovarian
[35] = system: OVCAR-3 ovarian
[36] = system: OVCAR-4 ovarian
[37] = system: OVCAR-5 ovarian
[38] = system: OVCAR-8 ovarian
[39] = system: PC-3 prostate
[40] = system: RPMI-8226 leukemia
[41] = system: RXF 393 renal
[42] = system: SF-268 CNS
[43] = system: SF-295 CNS
[44] = system: SF-539 CNS
[45] = system: SK-MEL-2 melanoma
[46] = system: SK-MEL-28 melanoma
[47] = system: SK-MEL-5 melanoma
[48] = system: SK-OV-3 ovarian
[49] = system: SN12C renal
[50] = system: SNB-19 CNS
[51] = system: SNB-75 CNS
[52] = system: SW-620 colon
[53] = system: T-47D breast
[54] = system: TK-10 renal
[55] = system: U251 CNS
[56] = system: UACC-257 melanoma
[57] = system: UACC-62 melanoma
[58] = system: UO-31 renal

For COC(=O)[C@]1(c2cc3ccccc3[nH]2)CC2CN(C(=O)OCc3ccccc3)C1CC2=O (stereo partly drawn), the TGI [1] was greater than 100 µM, the TGI [2] was 42.9 µM and the TGI [3] was 91.5 µM. It also gave a TGI [4] of 86 µM, a TGI [5] of 95.5 µM and a TGI [6] greater than 100 µM. It also gave a TGI [7] greater than 100 µM, a TGI [8] of 30.1 µM and a TGI [9] greater than 100 µM. For the same molecule, the TGI [10] was 43.7 µM, the TGI [11] was greater than 100 µM and the TGI [12] was greater than 100 µM. The TGI [13] was greater than 100 µM, the TGI [14] was 44.4 µM and the TGI [15] was greater than 100 µM. The TGI [16] was 87.8 µM, the TGI [17] was 62.4 µM and the TGI [18] was 31.7 µM. For the same molecule, the TGI [19] was greater than 100 µM, the TGI [20] was 45.1 µM and the TGI [21] was greater than 100 µM. It also gave a TGI [22] of 66.6 µM, a TGI [23] of 75.1 µM and a TGI [24] of 56.4 µM. For the same molecule, the TGI [25] was 35.5 µM, the TGI [26] was 32.4 µM and the TGI [27] was greater than 100 µM. For the same molecule, the TGI [28] was greater than 100 µM, the TGI [29] was 32.6 µM and the TGI [30] was 63.4 µM. The TGI [31] was greater than 100 µM, the TGI [32] was 77.6 µM and the TGI [33] was 66.8 µM. The TGI [34] was greater than 100 µM, the TGI [35] was greater than 100 µM and the TGI [36] was greater than 100 µM. The TGI [37] was 27.9 µM, the TGI [38] was greater than 100 µM and the TGI [39] was 39 µM. The TGI [40] was 38.9 µM, the TGI [41] was 68.2 µM and the TGI [42] was greater than 100 µM. The TGI [43] was greater than 100 µM, the TGI [44] was greater than 100 µM and the TGI [45] was 38.2 µM. The TGI [46] was greater than 100 µM, the TGI [47] was 34.5 µM and the TGI [48] was greater than 100 µM. For the same molecule, the TGI [49] was 80.6 µM, the TGI [50] was greater than 100 µM and the TGI [51] was 64.6 µM. The TGI [52] was greater than 100 µM, the TGI [53] was 76.2 µM and the TGI [54] was greater than 100 µM. The TGI [55] was 34.1 µM, the TGI [56] was greater than 100 µM and the TGI [57] was 58.7 µM. For the same molecule, the TGI [58] was greater than 100 µM.
